Results published in US20180360803A1, “PHARMACEUTICAL COMPOSITION FOR TREATMENT OR PREVENTION OF NASH” (UBE INDUSTRIES, LTD., priority 2015, published 2018).

What was measured:
STAM mice (NASH models) = assay: Non-alcoholic steatohepatitis (NASH) mouse models (STAM mice); assay type: in vivo; conditions: for NAFLD Activity score, compound administered group: 30 mg/kg twice daily orally for 3 weeks, age of six to nine weeks; for reduction in NAFLD activity score (statistical significance): versus vehicle group
Method: STAM (registered trademark) mice (Stelic Institute & Co., Inc.) were used as NASH models. The STAM (registered trademark) mice were prepared by subcutaneously administering 200 μg of streptozotocin (Sigma Aldrich) one time to the back of 2-day old male mice and feeding the mice with a high fat diet (High Fat Diet 32, CLEA Japan, Inc.) from the age of 4 weeks (Medical Molecular Morphology, 46 (2013) pp. 141-152).
The test compound was orally administered every day from the age of 5 or 6 weeks. At the age of 9 or 10 weeks, bloods and livers were collected under anesthesia. The bloods were subjected to biochemical tests. After the wet weights of the livers were measured, RNA was extracted from portions of the livers, and the expression levels of the inflammation and fibrosis marker genes were measured by the quantitative PCR method. Further, the amounts of hydroxyproline or collagen in the livers were measured. Paraffin sections or frozen sections were prepared from portions of the livers and were subjected to histopathological tests to determine the NAFLD activity scores, the fibrosis areas or the inflammation areas. The results were statistically analyzed using EXSUS (CAC EXICARE CORPORATION) or Prism 4 (GraphPad Software, Inc.).

human LPA1 = biological target: T1, human LPA1 (Homo sapiens, UniProt Q92633); assay: Test of LPA1 antagonism ([35S]GTPγS binding, membrane fraction of RH 7777 cells expressing human LPA1); assay type: biochemical; conditions: LPA 100 nM, read-out: IC50, concentration required for 50% inhibition of the binding of LPA1 and [35S]GTPγS
T1 construct: purchased ChanTest A324; host or cells: RH 7777 cells (recombinant expression of human LPA1)
T1 sequence (Q92633 whole entry): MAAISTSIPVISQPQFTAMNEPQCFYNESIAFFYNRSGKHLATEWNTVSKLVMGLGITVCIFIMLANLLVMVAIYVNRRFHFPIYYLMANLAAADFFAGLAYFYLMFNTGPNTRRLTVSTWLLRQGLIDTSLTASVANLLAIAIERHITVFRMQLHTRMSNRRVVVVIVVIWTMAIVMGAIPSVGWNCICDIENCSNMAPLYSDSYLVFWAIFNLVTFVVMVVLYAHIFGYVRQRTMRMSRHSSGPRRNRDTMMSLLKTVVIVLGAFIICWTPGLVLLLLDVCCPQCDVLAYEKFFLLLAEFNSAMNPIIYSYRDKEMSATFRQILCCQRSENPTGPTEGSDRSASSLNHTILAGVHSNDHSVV
Method: 5 μg of a membrane fraction of RH 7777 cells expressing human LPA1 (A324, ChanTest) was suspended in a reaction buffer (20 mM HEPES, 100 mM NaCl, 10 mM MgCl2, 10 μM GDP, 5 μg saponin, 0.2% BSA, 0.1 nM [^35S]GTPγS (NEG030X, Perkin Elmer), pH 7.4). The test compounds dissolved in DMSO in various concentrations were each added to the suspension. After preincubation at 30° C. for 15 minutes, LPA (L7260, Sigma, final concentration 100 nM) was added, and the suspensions were incubated at 30° C. for 30 minutes. The membrane fractions were collected on a glass fiber filter (GF/B, Whatman) by using a cell harvester (M30, Brandel), and were washed with a 10 mM phosphate buffer (pH 7.4). The radioactivity of the membrane fractions was measured with a liquid scintillation analyzer (2900TR, Packard). The concentration (IC50) of the test compound required for 50% inhibition of the binding of LPA1 and [^35S]GTPγS was determined by non-linear regression analysis using EXSAS (Arm Systex).

| Structure (SMILES) | NAFLD Activity score, compound administered group (STAM mice (NASH models)) | reduction in NAFLD activity score (statistical significance) (STAM mice (NASH models)) | IC50 (human LPA1) |
| --- | --- | --- | --- |
| COc1cc(-c2sc(Cl)cc2NC(=O)O[C@H](C)c2cc(F)ccc2F)ccc1-c1ccc(C2(C(=O)O)CC2)cc1 [Production Example 9, (R)-1-{4′-[5-chloro-3-({[1-(2,5-difluorophenyl)ethoxy]carbonyl}amino)thiophen-2-yl]-2′-methoxy-[1,1′-biphenyl]-4-yl}cyclopropanecarboxylic acid] | 3.1 ± 1.4 | significant (p<0.05) reduction |  |
| COc1cc(-c2sc(F)cc2NC(=O)O[C@H](C)c2ccccc2Cl)ccc1-c1ccc(C2(C(=O)O)CC2)cc1 [Production Example 8, (R)-1-{4′-[3-({[1-(2-chloropheny)ethoxy]carbonyl}amino)-5-fluorothiophen-2-yl]-2′-methoxy-[1,1′-biphenyl]-4-yl}cyclopropanecarboxylic acid] |  |  | ≤ 100 nM |
| COc1cc(-c2sc(Cl)cc2NC(=O)O[C@H](C)c2ccccc2)ccc1-c1ccc(C2(C(=O)O)CC2)cc1 [Production Example 6, (R)-1-[4′-(5-chloro-3-{[(1-phenylethoxy)carbonyl]amino}thiophen-2-yl)-2′-methoxy-[1,1′-biphenyl]-4-yl]cyclopropanecarboxylic acid] | 2.8 ± 1.0 | significant (p<0.05) reduction | ≤ 100 nM |
| Cc1cscc1[C@@H](C)OC(=O)Nc1cc(F)sc1-c1ccc(-c2ccc(C3(C(=O)O)CC3)cc2)cc1 [Production Example 7, (R)-1-{4′-[5-fluoro-3-({[1-(4-methylthiophen-3-yl)ethoxy]carbonyl}amino)thiophen-2-yl]-[1,1′-biphenyl]-4-yl}cyclopropanecarboxylic acid] |  |  | ≤ 100 nM |
